The values below come from ChEMBL document CHEMBL3627596, “Discovery of Novel Inhibitor Scaffolds against the Metallo-β-lactamase VIM-2 by Surface Plasmon Resonance (SPR) Based Fragment Screening” (J Med Chem, 2015).

The target of test [1] is T1, Beta-lactamase VIM-2 (Pseudomonas aeruginosa, UniProt Q9K2N0). In words: Binding affinity to Pseudomonas aeruginosa 301-5473 metallo-beta-lactamase VIM-2 expressed in Escherichia coli BL21(DE3) measured for 15 secs by SPR analysis. In general terms: Surface plasmon resonance follows binding to a sensor surface in real time, without labels.
The target in test [2] is T1, Beta-lactamase VIM-2. In words: Inhibition of Pseudomonas aeruginosa 301-5473 metallo-beta-lactamase VIM-2 expressed in Escherichia coli BL21(DE3) using nitrocefin as substrate preincubated for 5 mins followed by substrate addition measured every 17 secs for 20 mins by microplate reader analysis.
The target of test [3] is Beta-lactamase VIM-2 (Pseudomonas aeruginosa) (UniProt Q9K2N0). In words: Inhibition of Pseudomonas aeruginosa 301-5473 metallo-beta-lactamase VIM-2 expressed in Escherichia coli BL21(DE3) using nitrocefin as substrate at 500 uM preincubated for 5 mins followed by substrate addition measured every 17 secs for 20 mins by microplate reader analysis relative to control.
Test [4] concerns the target T1, Beta-lactamase VIM-2. In words: Reversible binding affinity to Pseudomonas aeruginosa 301-5473 metallo-beta-lactamase VIM-2 expressed in Escherichia coli BL21(DE3) measured for 15 secs by SPR analysis.
The target of test [5] is Beta-lactamase VIM-2 (Pseudomonas aeruginosa) (UniProt Q9K2N0). The following applies: 301-5473.
Description: Reversible binding affinity to Pseudomonas aeruginosa 301-5473 metallo-beta-lactamase VIM-2 expressed in Escherichia coli BL21(DE3) assessed as association constant measured for 30 secs by SPR analysis
For test [6], the target named is T1, Beta-lactamase VIM-2. In words: Dissociation rate constant to Pseudomonas aeruginosa 301-5473 metallo-beta-lactamase VIM-2 expressed in Escherichia coli BL21(DE3) by SPR analysis.

pIC50, pKd: −log10 of the molar value. Where only a bound is given, the exact number is not on record here.

On Beta-lactamase VIM-2 [1], `Cn1c(S)nnc1C(F)(F)F` showed a pKd of 3.84. The compound also gave a negative-log IC50 (pIC50) against Beta-lactamase VIM-2 [2] of 3.63. Besides, the inhibition in test [3] was above 15%.
On Beta-lactamase VIM-2 [2], `O=C(O)c1ccccc1C(=O)c1ccc(Cl)cc1` showed a pIC50 of 4.92.
Still for that read-out and setting: the result for `CC(=O)c1ccccc1C(=O)O` reads below 3.00.
For `O=C(O)CSc1ccnc2cc(Cl)ccc12`, the pKd on Beta-lactamase VIM-2 [1] was 3.58. The compound further gave a pIC50 against Beta-lactamase VIM-2 [2] of 3.69. In test [3], this compound yielded an inhibition above 15%.
For `COC(=O)c1ccccc1C(=O)c1ccccc1`, the pIC50 against Beta-lactamase VIM-2 [2] is below 2.52.
On the same count and under the same terms, the result for `O=C(O)c1ccccc1C(=O)c1ccccc1` [2-BENZOYLBENZOIC ACID] reads 5.10; that for `O=C(O)c1ccccc1Cc1ccccc1`, below 3.00.
The compound `O=C(O)CCCc1c[nH]c2ccccc12` gave a negative logarithm of the Kd (pKd) on Beta-lactamase VIM-2 [1] of 3.56. Besides, the pIC50 against Beta-lactamase VIM-2 [2] was 3.12. In addition, the inhibition in test [3] was above 15%.
`N#Cc1c(C(F)(F)F)cc(-c2cccs2)nc1O` showed a negative-log Kd (pKd) at Beta-lactamase VIM-2 [1] of 3.64. Also, the pIC50 at Beta-lactamase VIM-2 [2] was 3.50. In test [3], this compound came in with an inhibition above 15%.
In turn, `O=C(O)c1cncc(C#Cc2ccccc2)c1` had a negative logarithm of the Kd (pKd) at Beta-lactamase VIM-2 [1] of 3.35. Also, the pIC50 against Beta-lactamase VIM-2 [2] is 3.53. The same compound returned an inhibition in test [3] above 15%.
In the case of `C[C@@H](O)[C@H]1C(=O)N2C(C(=O)O)=C(S[C@@H]3CN[C@H](C(=O)N(C)C)C3)[C@H](C)[C@H]12` [MEROPENEM], the negative-log Kd (pKd) at Beta-lactamase VIM-2 [4] was 4.92.
`N#Cc1coc2ccccc2c1=O`: the negative logarithm of the Kd (pKd) at Beta-lactamase VIM-2 [1] is 3.00. Further, the pIC50 against Beta-lactamase VIM-2 [2] was 2.85. Also, the inhibition in test [3] is above 15%.
As to `CCCc1ccc(C(=O)CCC(=O)O)cc1`, the pKd at Beta-lactamase VIM-2 [1] was 3.76. The compound further showed a negative-log IC50 (pIC50) against Beta-lactamase VIM-2 [2] of 3.54. This compound had an inhibition in test [3] above 15%.
For `C[C@H](CS)C(=O)N1CCC[C@H]1C(=O)O` [CAPTOPRIL], the pKd on Beta-lactamase VIM-2 [4] was 6.22. Further, the Ka in test [5] stood at 4.2 ×10⁴ /M/s. The compound also returned a koff at Beta-lactamase VIM-2 [6] of 0.025 s⁻¹. This compound gave a pIC50 at Beta-lactamase VIM-2 [2] of 5.46.
Turning to `O=C(O)c1ccccc1C(=O)c1ccc(F)cc1`, the pKd at Beta-lactamase VIM-2 [1] is 5.05. The pIC50 on Beta-lactamase VIM-2 [2] is 4.85. For the same compound, the inhibition in test [3] was above 15%.

The term pKd denotes the negative decadic logarithm of the Kd, by convention in mol/L. Lower therefore signals a high Kd. In general, pIC50 refers to the IC50 on a negative log10 scale, so that one unit is a factor of ten. The inhibition is the share of the control response that was lost under treatment. Read a high inhibition as strong suppression. For orientation: koff means a measure of how fast the partners let go of each other. A low value points to a long-lived complex.
